Results as given in PubChem BioAssay AID1224920 (Broad Institute, 2016).
“And” between values parts separate entries of the source, which are not always exact repeats. Equal values may be shown once. The source made the active and inactive calls.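 How the source made its calls: active means IC50 no higher than ten times the top tested dose; inconclusive means flat fit with 30 to 70% inhibition, or poor fit; inactive means IC50 above ten times the top dose.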

System: Clostridium difficile clinical isolate growth, OD600, 24 h
Test: growth modulation of Clostridium difficile isolate – OD600, 9-point, retest, dose response (AID 1224920);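 further: inhibitors lower culture turbidity so OD600 falls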

SMILES: COc1ccccc1CN1C[C@@H]2N[C@H](C1)C2c1ccc(-c2ccc(C#N)cc2)cc1 (some centres not stated)
- IC50: 45.1 µM

SMILES: COc1ccccc1CN1CC[C@@H]2[C@H]1c1cc(C3=CCCCC3)ccc1N[C@@H]2CO
- IC50: 74.5 µM

SMILES: O=C(Nc1ccccc1F)N1CCCCN2[C@H](CO)[C@H](c3ccc(/C=C/c4ccccc4)cc3)[C@H]2C1
- IC50: 10.4 µM

SMILES: O=C(C[C@H]1CC[C@H]2[C@@H](COC[C@H](O)CN2C(=O)Nc2ccc(C(F)(F)F)cc2)O1)NC1Cc2ccccc2C1
- IC50: 3.82 µM

SMILES: C/C=C/c1ccc(C2[C@@H]3CN(Cc4ccc5c(c4)OCO5)C[C@H]2N3)cc1 (some centres not stated)
- IC50: 46.3 µM and 55.8 µM

SMILES: COc1cccc(CN2[C@@H]3CNC[C@H]2C3c2ccc(-c3ccccc3C)cc2)c1 (some centres not stated)
- IC50: 29.5 µM

SMILES: COc1ccccc1NC(=O)N1CCCCN2[C@@H](CO)[C@@H](c3ccc(-c4cccc(C)c4)cc3)[C@@H]2C1
- IC50: 23.5 µM

SMILES: Cc1ccccc1-c1ccc(C2[C@@H]3CN(S(=O)(=O)c4ccccc4)C[C@H]2N3)cc1 (some centres not stated)
- IC50: 56.1 µM

SMILES: O=C(C[C@@H]1CC[C@@H]2[C@H](COC[C@H](O)CN2C(=O)Nc2ccc(C(F)(F)F)cc2)O1)NCC1CCCCC1
- IC50: 7.67 µM

SMILES: COc1ccccc1-c1ccc(C2[C@@H]3CN(S(=O)(=O)c4ccccc4C)C[C@H]2N3)cc1 (some centres not stated)
- IC50: 28.1 µM

SMILES: O=C(C[C@@H]1CC[C@H]2[C@@H](COC[C@@H](O)CN2C(=O)Nc2cc(Cl)cc(Cl)c2)O1)N1CCOCC1
- IC50: 17.3 µM

SMILES: N#Cc1ccc(-c2ccc3c(c2)[C@H]2[C@H](CCN2Cc2ccc4c(c2)OCO4)[C@H](CO)N3)cc1
- IC50: 23.4 µM

SMILES: OC[C@@H]1[C@@H](c2ccc(C#CC3CCCC3)cc2)[C@H]2CN(CCC(F)(F)F)CCCCN12
- IC50: 26.9 µM

SMILES: Cc1cccc(-c2ccc(C3[C@@H]4CN(C(=O)Nc5ccc(C(F)(F)F)cc5)C[C@H]3N4)cc2)c1 (some centres not stated)
- IC50: 2.73 µM and 2.52 µM

SMILES: O=S(=O)(Cc1ccccc1)N1C[C@@H]2N[C@H](C1)C2c1ccc(-c2ccccc2)cc1 (some centres not stated)
- IC50: 59.7 µM

SMILES: COc1ccc(C#Cc2ccc([C@@H]3[C@@H](CO)N4CCCCN(C(=O)Nc5ccc(F)cc5)C[C@H]34)cc2)cc1
- IC50: 20.6 µM

SMILES: CCCN(C)C[C@@H]1OCCCC[C@@H](C)Oc2ccc(NC(=O)Nc3ccc(C(F)(F)F)cc3)cc2C(=O)N([C@H](C)CO)C[C@H]1C
- IC50: 31.6 µM

SMILES: OC[C@H]1[C@H](c2ccc(C#CC3CCCC3)cc2)[C@H]2CN(CCC(F)(F)F)CCCCN21
- IC50: 16.8 µM

SMILES: Cc1ccc(-c2ccc(C3[C@@H]4CN(C(=O)Nc5ccc(C(F)(F)F)cc5)C[C@H]3N4)cc2)cc1 (some centres not stated)
- IC50: 4.49 µM and 2.49 µM

SMILES: O=C(Nc1ccc(C(F)(F)F)cc1)N1C[C@@H]2N[C@H](C1)C2c1ccc(-c2cccnc2)cc1 (some centres not stated)
- IC50: 15.2 µM

SMILES: O=C(C[C@H]1CC[C@H]2[C@@H](COC[C@@H](O)CN2C(=O)Nc2ccc(C(F)(F)F)cc2)O1)NCC1CCCCC1
- IC50: 6.01 µM

SMILES: N#Cc1ccc(-c2ccc3c(c2)[C@H]2[C@H](CCN2C(=O)c2ccncc2)[C@H](CO)N3)cc1
- IC50: > 120 µM (inactive)

SMILES: COc1cc(CN2C[C@@H]3N[C@H](C2)C3c2ccc(-c3ccc(C#N)cc3)cc2)cc(OC)c1 (some centres not stated)
- IC50: 38.7 µM

SMILES: O=C(C[C@H]1CC[C@@H]2[C@H](COC[C@H](O)CN2C(=O)Nc2ccc(C(F)(F)F)cc2)O1)NCC1CCCCC1
- IC50: 6.15 µM

SMILES: OC[C@@H]1Nc2ccc(-c3ccc(F)cc3)cc2[C@@H]2[C@H]1CCN2Cc1ccc(F)cc1
- IC50: 82.4 µM

SMILES: COc1cccc(S(=O)(=O)N2C[C@@H]3N[C@H](C2)C3c2ccc(-c3cccc(C)c3)cc2)c1 (some centres not stated)
- IC50: 8.9 µM

SMILES: COc1ccc(-c2ccc(C3[C@@H]4CN(C(=O)Nc5cccc(F)c5)C[C@H]3N4)cc2)cc1 (some centres not stated)
- IC50: 26 µM

SMILES: COc1ccccc1S(=O)(=O)N1C[C@@H]2N[C@H](C1)C2c1ccc(-c2cccc(C)c2)cc1 (some centres not stated)
- IC50: 53.5 µM

SMILES: COc1ccccc1NC(=O)N1CCCCN2[C@H](CO)[C@H](c3ccc(-c4cccc(C)c4)cc3)[C@H]2C1
- IC50: 10.3 µM

SMILES: COc1ccc(-c2ccc(C3[C@H]4CNC[C@@H]3N4Cc3ccc4c(c3)OCO4)cc2)cc1 (some centres not stated)
- IC50: 53.1 µM

SMILES: O=C(C[C@@H]1CC[C@@H]2[C@H](COC[C@@H](O)CN2C(=O)Nc2ccc(Cl)c(Cl)c2)O1)NC1CCC1
- IC50: 5.89 µM

SMILES: COc1cc(CN2C[C@@H]3N[C@H](C2)C3c2ccc(-c3ccccc3C)cc2)cc(OC)c1 (some centres not stated)
- IC50: 18.8 µM and 13.7 µM

SMILES: COc1ccc(C#Cc2ccc([C@H]3[C@H](CO)N4CCCCN(C(=O)Nc5cccc(F)c5)C[C@@H]34)cc2)cc1
- IC50: 20.9 µM

SMILES: N#C[C@@H]1[C@@H](c2ccc(C#Cc3cccnc3)cc2)[C@@H](CO)N1C(=O)NC1CCCC1
- IC50: > 240 µM (inactive)

SMILES: O=C(NC[C@H]1N[C@H](CO)[C@@H]1c1ccc(C2=CCCCC2)cc1)c1cccc(F)c1
- IC50: 58.8 µM

SMILES: Cc1ccccc1-c1ccc(C2[C@H]3CNC[C@@H]2N3S(=O)(=O)c2ccc(Cl)cc2)cc1 (some centres not stated)
- IC50: 35.8 µM

SMILES: O=S(=O)(Cc1ccccc1)N1CCCCN2[C@H](CO)[C@@H](c3ccc(C#Cc4ccccc4)cc3)[C@H]2C1
- IC50: > 240 µM (inactive)

SMILES: COc1ccccc1-c1ccc(C2[C@@H]3CN(Cc4cccc(F)c4)C[C@H]2N3)cc1 (some centres not stated)
- IC50: 6.88 µM

SMILES: COc1cccc(-c2ccc(C3[C@@H]4CN(Cc5ccccn5)C[C@H]3N4)cc2)c1 (some centres not stated)
- IC50: 91.5 µM

SMILES: COc1cccc(-c2ccc(C3[C@H]4CNC[C@@H]3N4Cc3ccc(F)cc3)cc2)c1 (some centres not stated)
- IC50: 11.9 µM

SMILES: O=C(c1cnccn1)N1CC(=O)N2[C@H](C1)[C@@H](c1ccc(C#CCc3ccccc3)cc1)[C@@H]2CO
- IC50: > 240 µM (inactive)

SMILES: Cc1ccccc1-c1ccc([C@H]2[C@H](CO)N3CCCCN(C(=O)Nc4cccc(F)c4)C[C@@H]23)cc1
- IC50: 29.1 µM
